# Assay results reported in patent US7678818B2, “Anthranilamide and 2-amino-heteroarene-carboxamide compounds” (Hoffmann-La Roche Inc., priority 2006, dated 2010).
# Biological target: T1, cholesteryl ester transfer protein (CETP) from human lipoprotein-deprived serum (LPDS) (Homo sapiens, UniProt P11597)
# T1 construct: the source of CETP was human lipoprotein-deprived serum (LPDS); from tissue; host or cells: human lipoprotein-deprived serum (LPDS)
# T1 sequence (P11597 18-493): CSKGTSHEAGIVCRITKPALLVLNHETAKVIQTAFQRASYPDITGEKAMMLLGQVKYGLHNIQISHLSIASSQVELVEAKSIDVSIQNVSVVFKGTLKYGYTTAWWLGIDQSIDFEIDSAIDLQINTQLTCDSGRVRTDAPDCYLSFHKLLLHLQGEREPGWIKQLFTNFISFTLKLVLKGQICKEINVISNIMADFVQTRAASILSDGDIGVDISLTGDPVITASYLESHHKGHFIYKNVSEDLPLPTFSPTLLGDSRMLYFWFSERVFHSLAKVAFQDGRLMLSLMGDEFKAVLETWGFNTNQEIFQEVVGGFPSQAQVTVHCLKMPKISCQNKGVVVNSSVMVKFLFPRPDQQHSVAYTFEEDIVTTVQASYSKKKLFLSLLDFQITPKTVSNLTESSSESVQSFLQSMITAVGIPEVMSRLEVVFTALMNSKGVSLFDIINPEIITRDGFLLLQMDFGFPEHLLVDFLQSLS
# Assay: CETP inhibition in the presence of plasma (SPA assay, CETP source human lipoprotein-deprived serum)
# Assay type: biochemical
# Procedure: Activity of CETP inhibitors was determined using a buffer assay system. Partially purified CETP transferred radiolabeled cholesteryl ester from HDL donor particles to biotin-labeled LDL acceptor particles. The reaction was stopped by addition of streptavidin-coupled scintillation proximity assay (SPA) beads. These beads captured the biotinylated acceptor particles and transferred radioactivity was measured. The assay system was purchased and performed according to manufacturer's recommendations (Amersham Biosciences). Inhibitory activity of compounds was determined as percentage of positive control activity containing CETP together with donor and acceptor particles. Serial dilution of compounds was performed in order to determine the IC50 values.
# Activity of the compounds was subsequently measured in the presence of plasma using the same assay as described above except that the source of CETP was human lipoprotein-deprived serum (LPDS). Inhibitory activity of compounds was determined as percentage of positive control activity containing all the assay components except compound. Serial dilution of compounds was performed in order to determine the IC50 values.
row,IC50,SMILES
1,30 µM,"CC(C)(C)c1ccc(CN(CCc2cccc(C(F)(F)F)c2)C(=O)c2cccnc2N)cc1 [Compound 13.63, 2-Amino-N-(4-tert-butyl-benzyl)-N-[2-(3-trifluoromethyl-phenyl)-ethyl]-nicotinamide]"
2,0.295 µM,"CNc1c(Cl)ccc(F)c1C(=O)N(CCc1cccc(C(F)(F)F)c1)Cc1ccc(C(C)(C)C)cc1 [Compound 13.254, N-(4-tert-Butyl-benzyl)-3-chloro-6-fluoro-2-methylamino-N-[2-(3-trifluoromethyl-phenyl)-ethyl]-benzamide]"
3,5.61 µM,"CCC(=O)Nc1ccc(Cl)c(Cl)c1C(=O)N(CCc1cccc(C(F)(F)F)c1)Cc1ccc(C(C)(C)C)cc1 [Compound 13.230, N-(4-tert-Butyl-benzyl)-2,3-dichloro-6-propionylamino-N-[2-(3-trifluoromethyl-phenyl)-ethyl]-benzamide]"
